{"source": "paper PMC2925893", "about": "“Structure Activity Relationship of Dendrimer Microbicides with Dual Action Antiviral Activity” (PLoS ONE, 2010)", "key": {"[1]": {"tested_on": "HIV-1 strains", "assay": "microbe, parasite or virus in culture", "format": "cell-based", "protocol": "(§1) Fresh human PBMCs were isolated from screened donors, seronegative for HIV and hepatitis B virus. Cells were pelleted/washed 2-3 times by low speed centrifugation and resuspended in Dulbecco’s phosphate buffered saline (PBS) to remove contaminating platelets. The leukophoresed blood was then diluted 1:1 with PBS and layered over 14 ml of Ficoll-Hypaque density gradient (Lymphocyte Separation Medium, Cell Grow #85-072-CL, density 1.078 +/- 0.002 gm/ml) in a 50 ml centrifuge tube and then centrifuged for 30 min at 600g. Banded PBMCs were gently aspirated from the resulting interface and subsequently washed twice with PBS by low speed centrifugation. After the final wash, cells were counted by trypan blue exclusion and resuspended at 1 x 10^7 cells/ml in RPMI 1640 supplemented with 15% Fetal Bovine Serum (FBS), 2 mM L-glutamine, 4 µg/ml PHA-P. The cells were allowed to incubate for 48-72 h at 37°C. After incubation, PBMCs were centrifuged and resuspended in RPMI 1640 with 15% FBS, 2 mM L-glutamine, 100 U/ml penicillin, 100 µg/ml streptomycin, 10 µg/ml gentamycin, and 20 U/ml recombinant human IL-2. PBMCs were maintained in this medium at a concentration of 1-2 x 10^6 cells/ml with biweekly medium changes until used in the assay protocol. Monocytes were depleted from the culture as the result of adherence to the tissue culture flask.\nFor the standard PBMC assay, PHA-P stimulated cells from at least two normal donors were pooled, diluted in fresh medium to a final concentration of 1 x 10^6 cells/ml, and plated in the wells of a 96-well round bottom microplate at 50 µl/well (5 x 10^4 cells/well). […] Fifty microlitres of a predetermined dilution of virus stock was placed in each test well (final MOI ≅ 0.1). Wells with cells and virus alone were used for virus control. […] The PBMC cultures were maintained for seven days following infection, at which time cell-free supernate samples were collected and assayed for reverse transcriptase activity as described below.\nA microtiter plate-based reverse transcriptase (RT) reaction was utilized. Tritiated thymidine triphosphate (^3H-TTP, 80 Ci/mmol, NEN) was received in 1:1 dH2O:ethanol at 1 mCi/ml. PolyrA:oligodT template-primer (Pharmacia) was prepared as a stock solution by combining 150 µl polyrA (20 mg/ml) with 0.5 ml oligodT (20 units/ml) and 5.35 ml sterile dH2O followed by aliquoting (1.0 ml) and storage at -20°C. The RT reaction buffer was prepared fresh on a daily basis and consisted of 125 µl 1.0 M EGTA, 125 µl dH2O, 125 µl 20% Triton X100, 50 µl 1.0 M Tris (pH 7.4), 50 µl 1.0 M DTT, and 40 µl 1.0 M MgCl2. The final reaction mixture was prepared by combining 1 part ^3H-TTP, 4 parts dH2O, 2.5 parts polyrA:oligodT stock and 2.5 parts reaction buffer. Ten microliters of this reaction mixture was placed in a round bottom microtiter plate and 15 µl of virus containing supernatant was added and mixed. The plate was incubated at 37°C for 60 min. Following incubation, the reaction volume was spotted onto DE81 filter-mats (Wallac), washed 5 times for 5 min each in a 5% sodium phosphate buffer or 2X saline sodium citrate (SSC, Life Technologies), 2 times for 1 min each in distilled water, 2 times for 1 min each in 70% ethanol, and then dried. Incorporated radioactivity (counts per minute, CPM) was quantified using standard liquid scintillation techniques.\n(§2) The plate was read spectrophotometrically at 490/650 nm with a Molecular Devices Vmax plate reader"}, "[2]": {"tested_on": "HIV-1 NL4.3", "assay": "Time of addition assay in TZM-bl cells", "format": "cell-based", "protocol": "TZM-bl cells were seeded in 96-well tissue culture plates at 2.5×10^4 cells per well in 100 µl of DMEM-10. Cells were grown for 12 h at 37°C in 5% CO2 after which triplicate wells were infected with NL4.3 at a multiplicity of infection of one by spinoculation. Briefly, DMEM-10 was removed from cells and replaced with 100 µl of virus in DMEM-10 and plates were centrifuged at 1200 g for 60 min at 17°C. Viral inoculum was removed and cells washed twice with 250 µl of cold DMEM-10 after which 100 µl of DMEM-10 or DMEM-10 containing drug was added at t = 0 to appropriate cells. DMEM-10 containing drug was subsequently added at t = 2, 3, 4, 5, 6, 8 and 24 h post infection to appropriate wells. At 31 h postinfection, HIV-1 replication was determined by measuring luciferase activity as above."}, "[3]": {"tested_on": "R5 (ADA) HIV-1 envelope mediated cell-to-cell fusion", "assay": "Cell-to-cell fusion assay, R5 envelope", "format": "cell-based", "protocol": "(§3) The gp120 gene from the R5 HIV-1 strain ADA and X4 HIV-1 strain HXB2 was cloned into a HIV-1 Env expression vector. Briefly, the 2.1 kb HIV-1 env within Kpn I and Bam HI restriction sites was cloned from viral genomic DNA into pSVIII-HXB2 Env expression vector [67]. The pcDNA3-CD4, pcDNA3-CCR5 and pcDNA3-CXCR4 plasmids express human CD4, R5 and X4 respectively. pSVTat expresses the HIV-1 Tat protein. Cell-cell fusion assays were conducted as described previously. Briefly, Cf2-Luc target cells seeded in 25 cm^2 tissue culture flasks were transfected with 1 µg of CD4 plasmid and 3 µg of R5 or X4 plasmid. 293T effector cells seeded in 6-well tissue culture plates were co-transfected with 3.4 µg of ADA or HXB2 gp120-expressing plasmid and 0.6 µg pSVTat. Target and effector cells were transfected using Lipofectamine 2000 (Invitrogen) according to the manufacturers' protocol. Effector cells expressing ADA or HXB2 Env were pre-incubated in DMEM-10 containing 10-fold increasing concentrations of efavarenz, T-20, dendrimer or no drug (untreated controls) for 30 min at 37°C. Approximately 2×10^4 effector cells were added to 2×10^4 Cf2-Luc target cells and were incubated at 37°C in replicate wells containing 200 µl of culture. Cells from replicate wells were harvested at 7 h post-mixing and assayed for luciferase activity (Promega) according to the manufacturers' protocol. […]"}, "[4]": {"tested_on": "HSV-2 strain G", "set-up": "method as in PMID 16740164", "details": "mouse, single dose; cited from earlier work"}, "[5]": {"tested_on": "X4 (HXB2) HIV-1 envelope mediated cell-to-cell fusion", "assay": "Cell-to-cell fusion assay, X4 envelope", "format": "cell-based", "protocol": "as §3"}, "[6]": {"tested_on": "HIV-2 strains", "assay": "Anti-HIV activity in PHA-stimulated human PBMCs, supernatant RT activity readout", "format": "cell-based", "details": "PBMC", "protocol": "as §1\nFor the standard PBMC assay, PHA-P stimulated cells from at least two normal donors were pooled, diluted in fresh medium to a final concentration of 1 x 10^6 cells/ml, and plated in the wells of a 96-well round bottom microplate at 50 µl/well (5 x 10^4 cells/well). […] Fifty microlitres of a predetermined dilution of virus stock was placed in each test well (final MOI ≅ 0.1). Wells with cells and virus alone were used for virus control. […]\nA microtiter plate-based reverse transcriptase (RT) reaction was utilized. […] Incorporated radioactivity (counts per minute, CPM) was quantified using standard liquid scintillation techniques.\nas §2"}, "[7]": {"details": "PBMC, multi-drug resistant HIV-1 MDR769"}}, "note": "Where two headings read alike, the source gives them in different places.", "data": [{"compound": "Dextran Sulfate", "values": [{"measurement": "EC50", "setting": "[1]; [7]", "value": 1.25, "unit": "µg/mL"}, {"measurement": "SI", "setting": "[1]; [7]", "value": ">80"}]}, {"compound": "Cc1ccnc2c1NC(=O)c1cccnc1N2C1CC1", "note": "[nevirapine]", "values": [{"measurement": "time post infection that addition could be delayed before loss of HIV-1 inhibitory activity", "setting": "[2]", "value": "up to 6 h"}]}, {"compound": "maraviroc", "values": [{"measurement": "inhibition of cell-to-cell fusion", "setting": "[3]", "value": "failed to inhibit fusion"}]}, {"compound": "CCCCCCCCCc1ccc(OCCOCCOCCOCCOCCOCCOCCOCCOCCO)cc1", "note": "[nonoxynol 9]", "values": [{"measurement": "susceptibility to HSV-2 infection after exposure", "setting": "[4]", "value": "susceptibility is greatly increased"}]}, {"compound": "O=C1Nc2ccc(Cl)cc2[C@@](C#CC2CC2)(C(F)(F)F)O1", "note": "[efavirenz]", "values": [{"measurement": "inhibition of cell-to-cell fusion", "setting": "[5]", "value": "did not inhibit cell-to-cell fusion"}, {"measurement": "inhibition of cell-to-cell fusion", "setting": "[3]", "value": "did not inhibit cell-to-cell fusion"}]}, {"compound": "Cc1cn([C@H]2C[C@H](N=[N+]=[N-])[C@@H](CO)O2)c(=O)[nH]c1=O", "note": "[AZT, zidovudine]", "values": [{"measurement": "EC50", "setting": "[1]; Human immunodeficiency virus 1, CCR5, PBMC, Clade A (92RW016), CCR5", "value": 2, "unit": "nM"}, {"measurement": "EC50", "setting": "[1]; Human immunodeficiency virus 1, CCR5, PBMC, Clade B (302056), CCR5", "value": 10, "unit": "nM"}, {"measurement": "EC50", "setting": "[1]; Human immunodeficiency virus 1, CCR5, PBMC, Clade C (92BR025), CCR5", "value": 4, "unit": "nM"}, {"measurement": "EC50", "setting": "[1]; Human immunodeficiency virus 1, CCR5, PBMC, Clade G (JV1083), CCR5", "value": 4, "unit": "nM"}, {"measurement": "EC50", "setting": "[1]; Human immunodeficiency virus 1, CCR5, PBMC, Clade O (BCF01), CCR5", "value": 4, "unit": "nM"}, {"measurement": "EC50", "setting": "[1]; Human immunodeficiency virus 1, CCR5, PBMC, SLKA (NSI), CCR5", "value": 4, "unit": "nM"}, {"measurement": "EC50", "setting": "[1]; Human immunodeficiency virus 1, CCR5, PBMC, TEKI (NSI), CCR5", "value": 2, "unit": "nM"}, {"measurement": "EC50", "setting": "[1]; Human immunodeficiency virus 1, PBMC, PBMC, Clade D (92UG046), CXCR4", "value": 3, "unit": "nM"}, {"measurement": "EC50", "setting": "[1]; Human immunodeficiency virus 1, PBMC, PBMC, Clade EA (CMU02), CXCR4", "value": 8, "unit": "nM"}, {"measurement": "EC50", "setting": "[1]; Human immunodeficiency virus 1, PBMC, PBMC, Clade F (93BR020), dual tropic", "value": 2, "unit": "nM"}, {"measurement": "EC50", "setting": "[1]; Human immunodeficiency virus 1, PBMC, PBMC, ROJO (SI), CXCR4", "value": 2, "unit": "nM"}, {"measurement": "EC50", "setting": "[1]; Human immunodeficiency virus 1, PBMC, PBMC, WEJO (SI), CXCR4", "value": 0.3, "unit": "nM"}, {"measurement": "EC50", "setting": "[1]; Human immunodeficiency virus 1, PBMC, read-out: EC50 of positive control, assay validation, PBMC assays", "value": "≤ 10", "unit": "nM"}, {"measurement": "SI", "setting": "[1]; PBMC, Clade A (92RW016)", "value": ">500"}, {"measurement": "SI", "setting": "[1]; PBMC, Clade B (302056)", "value": ">100"}, {"measurement": "SI", "setting": "[1]; PBMC, Clade C (92BR025)", "value": ">250"}, {"measurement": "SI", "setting": "[1]; PBMC, Clade D (92UG046)", "value": ">333"}, {"measurement": "SI", "setting": "[1]; PBMC, Clade EA (CMU02)", "value": ">125"}, {"measurement": "SI", "setting": "[1]; PBMC, Clade F (93BR020)", "value": ">500"}, {"measurement": "SI", "setting": "[1]; PBMC, Clade G (JV1083)", "value": ">250"}, {"measurement": "SI", "setting": "[1]; PBMC, Clade O (BCF01)", "value": ">250"}, {"measurement": "SI", "setting": "[1]; PBMC, ROJO (SI)", "value": ">500"}, {"measurement": "SI", "setting": "[1]; PBMC, SLKA (NSI)", "value": ">250"}, {"measurement": "SI", "setting": "[1]; PBMC, TEKI (NSI)", "value": ">500"}, {"measurement": "SI", "setting": "[1]; PBMC, WEJO (SI)", "value": ">3333"}, {"measurement": "EC50", "setting": "[6]; Human immunodeficiency virus 2, HIV-2 CBL-20, AZT column", "value": 1, "unit": "nM"}, {"measurement": "SI", "setting": "[6]; HIV-2 CBL-20", "value": ">1000"}, {"measurement": "SI", "setting": "[6]; HIV-2 CDC 310319", "value": ">1000"}]}, {"compound": "c1cc(CN2CCCNCCNCCCNCC2)ccc1CN1CCCNCCNCCCNCC1", "note": "[AMD3100]", "values": [{"measurement": "inhibition of cell-to-cell fusion", "setting": "[5]", "value": "failed to inhibit fusion"}, {"measurement": "time of addition result", "setting": "[2]; dendrimers at 20 and 100 µg/ml", "value": "failed to block HIV-1 replication if the drug was added after virus addition"}]}]}
